As a reminder, the IC50 is the concentration that gives 50% inhibition. Usually pKa stands for the pH at which an ionisable group is half protonated. Usually inhibition stands for the share of the control response that was lost under treatment. Broadly, the bioavailability is the share of a dose that reaches the circulation, judged against a reference dose that is usually intravenous.

The results in this text go back to ChEMBL document CHEMBL1148261, “Pharmacophore-based search, synthesis, and biological evaluation of anthranilic amides as novel blockers of the Kv1.5 channel” (Bioorg Med Chem Lett, 2004).

For series [1], the target named is T1, Potassium voltage-gated channel subfamily A member 5 (Homo sapiens, UniProt P22460). The series can be described thus: Inhibitory effect against human voltage-gated potassium channel subunit Kv1.5 expressed in Xenopus oocytes. The format is cell-based, Oocyte.
T1 sequence (P22460 whole entry): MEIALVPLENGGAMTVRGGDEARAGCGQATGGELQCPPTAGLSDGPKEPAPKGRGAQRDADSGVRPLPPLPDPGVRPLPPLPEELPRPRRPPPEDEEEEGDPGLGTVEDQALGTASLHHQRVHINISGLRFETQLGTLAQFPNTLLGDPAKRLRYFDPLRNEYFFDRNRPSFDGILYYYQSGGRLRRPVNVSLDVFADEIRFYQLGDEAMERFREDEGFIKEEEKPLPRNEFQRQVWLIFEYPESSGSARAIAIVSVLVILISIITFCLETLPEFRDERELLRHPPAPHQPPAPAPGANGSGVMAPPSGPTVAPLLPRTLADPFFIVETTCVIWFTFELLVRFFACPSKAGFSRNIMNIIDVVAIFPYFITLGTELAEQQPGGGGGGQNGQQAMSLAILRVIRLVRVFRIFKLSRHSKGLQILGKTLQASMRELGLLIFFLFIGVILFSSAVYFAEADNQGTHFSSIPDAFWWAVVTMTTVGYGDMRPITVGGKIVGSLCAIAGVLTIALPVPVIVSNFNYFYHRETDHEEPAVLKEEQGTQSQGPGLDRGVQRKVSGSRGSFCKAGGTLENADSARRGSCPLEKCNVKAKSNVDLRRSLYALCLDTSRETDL
The nature of series [2]: pKa value was determined. The series is classed as physicochemical.
Series [3] has as its target T1, Potassium voltage-gated channel subfamily A member 5. The series can be described thus: Percent inhibition of human voltage-gated potassium channel subunit Kv1.5 expressed in Xenopus oocytes at 10 uM. Particulars: Oocyte. The series is classed as cell-based.
Series [4] in a line: Oral bioavailability of compound in rats. Particulars: rat, in vivo. The series is classed as ADME, organism-based.

As to `CC[C@H](NC(=O)c1ccccc1NS(=O)(=O)c1cccc2cnccc12)c1ccccc1`, the IC50 in series [1] was determined as 9 µM.

Molecule `CC[C@H](NC(=O)c1ccccc1NS(=O)(=O)c1cccc2cccnc12)c1ccccc1` gave an IC50 in series [1] of 0.6 µM.

Regarding `CC[C@H](NC(=O)c1ccccc1NS(=O)(=O)c1ccc(C)cc1)c1ccccc1`, in series [1], half-maximal inhibition (IC50) required 0.7 µM. This molecule yielded a pKa in series [2] of 7.2.

On to `CC[C@H](NC(=O)c1ccccc1NS(=O)(=O)CC)c1ccccc1`, for which 10 µM corresponded to half-maximal inhibition in series [1] (IC50).

With `CC[C@H](NC(=O)c1cc(OCCOC)ccc1NS(=O)(=O)c1ccc(C)cc1)c1ccccc1`, the inhibition in series [3] came to 46%.

In series [1], `CC[C@H](NC(=O)c1ccccc1NS(=O)(=O)c1ccc(C(F)(F)F)cc1)c1ccccc1` returned an IC50 of 4 µM. For the same molecule, the pKa in series [2] stood at 6.2.

The molecule `Cc1ccc(S(=O)(=O)Nc2ccccc2C(=O)N(Cc2ccccc2)Cc2cccnc2)cc1` displayed a bioavailability in series [4] of 43%.

`Cc1ccc(S(=O)(=O)Nc2ccccc2C(=O)NC(c2ccccc2)C2CC2)cc1` (configuration not stated) registered an IC50 in series [1] of 1.6 µM.

The molecule `CC[C@H](NC(=O)c1cc(OC)ccc1NS(=O)(=O)c1ccc(C)cc1)c1ccccc1` yielded a pKa in series [2] of 7.5.

As for `O=C(NCc1ccccc1)c1cc(Cl)ccc1NS(=O)(=O)c1ccc(Cl)cc1`, half-maximal inhibition in series [1] (IC50) was put at 5.6 µM.

In turn, `CC[C@H](NC(=O)c1ccccc1NS(=O)(=O)c1ccccc1)c1ccccc1` had a half-inhibitory concentration (IC50) in series [1] of 1.3 µM. For the same molecule, the pKa in series [2] was 6.9.

Molecule `Cc1ccc(S(=O)(=O)Nc2ccccc2C(=O)N(Cc2cccnc2)Cc2cccnc2)cc1` had an IC50 in series [1] of 2.2 µM.

`CC[C@H](NC(=O)c1cc(OCC2CC2)ccc1NS(=O)(=O)c1ccc(C)cc1)c1ccccc1` had an inhibition in series [3] of 41%.

Regarding `CC[C@H](NC(=O)c1cc(F)ccc1NS(=O)(=O)c1ccc(Cl)cc1)c1ccccc1`, in series [1], half-maximal inhibition (IC50) was put at 3.8 µM. The molecule further yielded a pKa in series [2] of 6.5.

`CC[C@H](NC(=O)c1ccccc1NS(=O)(=O)c1cccnc1)c1ccccc1` gave an inhibition in series [3] of 36%.

In series [1], `Cc1ccc(S(=O)(=O)Nc2ccccc2C(=O)NCCc2ccccc2)cc1` showed an IC50 of 6.7 µM.

As for `CC[C@H](NC(=O)c1cc(C(C)=O)ccc1NS(=O)(=O)c1ccc(C)cc1)c1ccccc1`, the IC50 in series [1] was 3.8 µM.

For the molecule `CC[C@H](NC(=O)c1cc(OCN(C)C)ccc1NS(=O)(=O)c1ccc(C)cc1)c1ccccc1`, the inhibition in series [3] came to 15%.
